In article PMC9458058, “Synthesis of N-Substituted Iminosugar C-Glycosides and Evaluation as Promising α-Glucosidase Inhibitors” (Molecules, 2022):
Where two headings read alike, the source gives them in different places.

What was measured:
α-glucosidase from yeast = α-glucosidase from yeast (Saccharomyces cerevisiae, UniProt P53341); experiment: biochemical; assay type: biochemical; settings: for inhibition of α-glucosidase, in words: Figure 3, 1 µg/mL, relative to lead compound 4 / Acarbose; for inhibition potency compared with compound 5λ, in words: Table 2
Sequence of α-glucosidase from yeast (P53341 whole entry): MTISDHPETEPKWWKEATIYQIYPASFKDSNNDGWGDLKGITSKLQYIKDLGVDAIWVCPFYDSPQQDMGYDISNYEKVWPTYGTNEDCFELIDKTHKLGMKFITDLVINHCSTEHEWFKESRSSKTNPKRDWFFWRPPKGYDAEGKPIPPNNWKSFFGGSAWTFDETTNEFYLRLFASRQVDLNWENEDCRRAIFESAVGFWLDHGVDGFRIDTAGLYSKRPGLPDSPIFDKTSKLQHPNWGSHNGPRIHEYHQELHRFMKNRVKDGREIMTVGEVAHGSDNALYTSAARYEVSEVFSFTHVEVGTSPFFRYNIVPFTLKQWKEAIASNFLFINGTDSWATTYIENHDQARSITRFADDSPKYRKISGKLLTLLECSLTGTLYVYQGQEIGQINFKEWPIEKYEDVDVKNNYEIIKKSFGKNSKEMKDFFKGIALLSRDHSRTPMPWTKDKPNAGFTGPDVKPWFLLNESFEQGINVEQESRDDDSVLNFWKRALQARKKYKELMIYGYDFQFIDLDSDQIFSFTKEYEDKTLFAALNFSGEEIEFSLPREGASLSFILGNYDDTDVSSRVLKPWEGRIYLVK
Description: The inhibitory potency of the synthesized N-substituted iminosugar C-glycosides 5 was assessed by testing the compounds in assays for the α-glucosidase from yeast. […] Alternatively, N atom was modified with various benzaldehydes, giving a library of iminosugar C-glycosides containing phenyl.
The extracts of each sample were dissolved in distilled water to prepare a certain concentration. 150 µL of the sample solution was mixed with 150 µL of maltose solution (prepared with 0.2 M, pH = 6.8 phosphate buffer) at a certain concentration, and cultured at 37 °C for 10 min. Then 150 µL of the enzyme solution at a certain concentration was added and mixed. The reaction was carried out at 37 °C for 60 min. The reaction was terminated in a boiling water bath for 10 min and centrifuged at 3000 r/min for 10 min. The supernatant was taken to determine the content of glucose with Glu kit. […] Enzyme activity inhibition rate (%) = (negative-sample)/(negative-blank) × 100%.

α-glucosidase = α-glucosidase (Saccharomyces cerevisiae, UniProt P53341); experiment: Enzyme kinetics experiment (ultrafiltration recovery, Lineweaver-Burk plots); assay type: biochemical
Sequence of α-glucosidase (P53341 whole entry): as above
Excerpt: To determine which mechanism 6e belonged to, we removed the unreacted inhibitor from the enzyme solution by ultrafiltration, and examined whether the activity would be recovered or not by the method described in the literatures. When an enzyme solution containing 6e was subjected to ultrafiltration and then redissolved with the same concentration, the α-glucosidase activity was substantially recovered (Figure 5A).
Further analysis of the compound 6e, in order to reveal the type of enzyme inhibition on α-glucosidase, was done with different substrate concentration.
Enzyme kinetics experiment: The principle of the experimental method is the same as that of the above method, in which the micro-membrane centrifuge tube with a pore diameter of 3K is used for small molecule centrifugal separation. In the enzyme kinetics experiment, the concentration of enzyme was set at a fixed concentration, and five concentration gradients were designed for the solution of substrate maltose. The linear relationship was plotted using the obtained results combined with the Michaelis-Menten equation.

[1] = read-out: IC50 against α-glucosidase from yeast

COc1ccc(CN2C[C@@H](O)[C@@H](O)[C@@H](O)[C@H]2CC(C)=O)cc1O [Compound 6h, (1R, 2S, 3R, 4R)-1-Acetylmethyl-2,3,4-trihydroxyl-N-3-hydroxyl-4-methoxylbenzylpiperidine]
IC50 (α-glucosidase from yeast): > 20 µM

CC(=O)CC1C(O)C(O)C(O)CN1Cc1ccc(C(F)(F)F)cc1 [Compound 5l, (1R, 2S, 3R, 4R)-1-Acetylmethyl-2,3,4-trihydroxyl-N-4-trifluoromethylbenzylpiperidine]
inhibition of α-glucosidase, in words (α-glucosidase from yeast): The same result was obtained

CC(=O)CC1C(O)C(O)C(O)CN1Cc1cccc(F)c1 [Compound 5z, (1R, 2S, 3R, 4R)-1-Acetylmethyl-2,3,4-trihydroxyl-N-3-fluorobenzylpiperidine]
inhibition of α-glucosidase, in words (α-glucosidase from yeast): doesn’t show any significant improvement

CC(=O)CC1C(O)C(O)C(O)CN1Cc1ccc(Cl)cc1 [Compound 5q, (1R, 2S, 3R, 4R)-1-Acetylmethyl-2,3,4-trihydroxyl-N-4-chlorobenzylpiperidine]
inhibition of α-glucosidase, in words (α-glucosidase from yeast): doesn’t show any significant improvement

CC(=O)C[C@@H]1[C@H](O)[C@H](O)[C@H](O)CN1Cc1cc(Br)c(O)c(Br)c1 [Compound 6i, (1R, 2S, 3R, 4R)-1-Acetylmethyl-2,3,4-trihydroxyl-N-3,5-dibromo-4-hydroxylbenzylpiperidine]
inhibition potency compared with compound 5λ, in words (α-glucosidase from yeast): slightly improve the inhibition potency | IC50 (α-glucosidase from yeast; [1]): 5.5 µM

COc1ccc(CN2C[C@@H](O)[C@@H](O)[C@@H](O)[C@H]2CC(C)=O)cc1 [Compound 5o, (1R, 2S, 3R, 4R)-1-Acetylmethyl-2,3,4-trihydroxyl-N-4-methoxylbenzylpiperidine]
inhibition of α-glucosidase, in words (α-glucosidase from yeast): The same result was obtained

CCCN1C[C@@H](O)[C@@H](O)[C@@H](O)[C@H]1CC(C)=O [Compound 5a, (1R, 2S, 3R, 4R)-1-Acetylmethyl-2,3,4-trihydroxyl-N-n-propylpiperidine]
inhibition of α-glucosidase, in words (α-glucosidase from yeast): no improvement of α-glucosidase inhibition

CC(=O)CC1C(O)C(O)C(O)CN1Cc1cccc(Cl)c1 [Compound 5t, (1R, 2S, 3R, 4R)-1-Acetylmethyl-2,3,4-trihydroxyl-N-3-chlorobenzylpiperidine]
inhibition of α-glucosidase, in words (α-glucosidase from yeast): doesn’t show any significant improvement

CC(=O)CC1C(O)C(O)C(O)CN1Cc1cccc(Br)c1 [Compound 5w, (1R, 2S, 3R, 4R)-1-Acetylmethyl-2,3,4-trihydroxyl-N-3-bromobenzylpiperidine]
inhibition of α-glucosidase, in words (α-glucosidase from yeast): doesn’t show any significant improvement

CC(=O)CC1C(O)C(O)C(O)CN1Cc1ccccc1Cl [Compound 5r, (1R, 2S, 3R, 4R)-1-Acetylmethyl-2,3,4-trihydroxyl-N-2-chlorobenzylpiperidine]
IC50 (α-glucosidase from yeast): 12 µM | inhibition of α-glucosidase, in words (α-glucosidase from yeast): enhanced the enzyme inhibition

CC(=O)CC1C(O)C(O)C(O)CN1Cc1ccc(C#N)cc1 [Compound 5m, (1R, 2S, 3R, 4R)-1-Acetylmethyl-2,3,4-trihydroxyl-N-4-cyanobenzylpiperidine]
inhibition of α-glucosidase, in words (α-glucosidase from yeast): The same result was obtained

CC(=O)C[C@@H]1[C@H](O)[C@H](O)[C@H](O)CN1Cc1c(Cl)cc(O)cc1Cl [Compound 6e, (1R, 2S, 3R, 4R)-1-Acetylmethyl-2,3,4-trihydroxyl-N-2,6-dichloro-4-hydroxylbenzylpiperidine]
inhibition compared with positive control Acarbose, in words (α-glucosidase from yeast): stronger inhibitory potency than positive control Acarbose | inhibitory potency relative to positive control Acarbose (α-glucosidase from yeast): 2 fold | IC50 (α-glucosidase from yeast; [1]): 0.9 µM | type of enzyme inhibition (α-glucosidase; Lineweaver-Burk plots): uncompetitive inhibitor | Ki (α-glucosidase; Lineweaver-Burk plots, different substrate concentration): 8.6 µM | reversibility of inhibition (α-glucosidase; enzyme activity after removal of inhibitor by ultrafiltration): reversible inhibitor

CC(=O)CC1C(O)C(O)C(O)CN1Cc1cccc(O)c1 [Compound 5π, (1R, 2S, 3R, 4R)-1-Acetylmethyl-2,3,4-trihydroxyl-N-3-hydroxylbenzylpiperidine]
IC50 (α-glucosidase from yeast): > 20 µM | inhibition of α-glucosidase, in words (α-glucosidase from yeast): reduced the inhibitory potency significantly

CC(=O)CC1C(O)C(O)C(O)CN1Cc1ccccc1Br [Compound 5v, (1R, 2S, 3R, 4R)-1-Acetylmethyl-2,3,4-trihydroxyl-N-2-bromobenzylpiperidine]
inhibition of α-glucosidase, in words (α-glucosidase from yeast): enhanced the enzyme inhibition

CC(=O)CC1C(O)C(O)C(O)CN1Cc1ccccc1O [Compound 5θ, (1R, 2S, 3R, 4R)-1-Acetylmethyl-2,3,4-trihydroxyl-N-2-hydroxylbenzylpiperidine]
IC50 (α-glucosidase from yeast): > 20 µM | inhibition of α-glucosidase, in words (α-glucosidase from yeast): reduced the inhibitory potency significantly

CC(=O)C[C@@H]1[C@H](O)[C@H](O)[C@H](O)CN1Cc1ccc(O)c(Br)c1 [Compound 6b, (1R, 2S, 3R, 4R)-1-Acetylmethyl-2,3,4-trihydroxyl-N-3-bromo-4-hydroxylbenzylpiperidine]
inhibition potency compared with compound 5λ, in words (α-glucosidase from yeast): slightly improve the inhibition potency | IC50 (α-glucosidase from yeast; [1]): 5.3 µM

CC(=O)C[C@@H]1[C@H](O)[C@H](O)[C@H](O)CN1Cc1ccc(O)c(Cl)c1 [Compound 6a, (1R, 2S, 3R, 4R)-1-Acetylmethyl-2,3,4-trihydroxyl-N-3-chloro-4-hydroxylbenzylpiperidine]
inhibition potency compared with compound 5λ, in words (α-glucosidase from yeast): slightly improve the inhibition potency | IC50 (α-glucosidase from yeast; [1]): 5.6 µM

COc1cc(CN2C[C@@H](O)[C@@H](O)[C@@H](O)[C@H]2CC(C)=O)ccc1O [Compound 6f, (1R, 2S, 3R, 4R)-1-Acetylmethyl-2,3,4-trihydroxyl-N-4-hydroxyl-methoxylbenzylpiperidine]
IC50 (α-glucosidase from yeast): > 20 µM | inhibition potency compared with compound 5λ, in words (α-glucosidase from yeast): severely diminishes the inhibition

CC(=O)C[C@H]1NC[C@@H](O)[C@@H](O)[C@H]1O [Compound 4, 1-C-Acetylmethyl-5-deoxy-5-amino-α-D-ribopyranoside]
IC50 (α-glucosidase from yeast): > 20 µM | inhibition of α-glucosidase, in words (α-glucosidase from yeast): weak inhibitory activity

CC(=O)CC1C(O)C(O)C(O)CN1Cc1cccc(C)c1 [Compound 5k, (1R, 2S, 3R, 4R)-1-Acetylmethyl-2,3,4-trihydroxyl-N-3-methylbenzylpiperidine]
inhibition of α-glucosidase, in words (α-glucosidase from yeast): The same result was obtained

CC(=O)CC1C(O)C(O)C(O)CN1Cc1ccc(C)cc1 [Compound 5j, (1R, 2S, 3R, 4R)-1-Acetylmethyl-2,3,4-trihydroxyl-N-4-methylbenzylpiperidine]
inhibition of α-glucosidase, in words (α-glucosidase from yeast): The same result was obtained

CCOc1cc(CN2C[C@@H](O)[C@@H](O)[C@@H](O)[C@H]2CC(C)=O)ccc1O [Compound 6g, (1R, 2S, 3R, 4R)-1-Acetylmethyl-2,3,4-trihydroxyl-N-3-ethyoxyl-4-hydroxylbenzylpiperidine]
IC50 (α-glucosidase from yeast): > 20 µM | inhibition potency compared with compound 5λ, in words (α-glucosidase from yeast): severely diminishes the inhibition

COc1cccc(CN2C[C@@H](O)[C@@H](O)[C@@H](O)[C@H]2CC(C)=O)c1 [Compound 5p, (1R, 2S, 3R, 4R)-1-Acetylmethyl-2,3,4-trihydroxyl-N-3-methoxylbenzylpiperidine]
inhibition of α-glucosidase, in words (α-glucosidase from yeast): The same result was obtained

CC(=O)CC1C(O)C(O)C(O)CN1Cc1ccccc1F [Compound 5y, (1R, 2S, 3R, 4R)-1-Acetylmethyl-2,3,4-trihydroxyl-N-2-fluorobenzylpiperidine]
inhibition of α-glucosidase, in words (α-glucosidase from yeast): doesn’t show any significant improvement

CC(=O)C[C@@H]1[C@H](O)[C@H](O)[C@H](O)CN1Cc1ccc(O)c(F)c1 [Compound 6c, (1R, 2S, 3R, 4R)-1-Acetylmethyl-2,3,4-trihydroxyl-N-3-fluoro-4-hydroxylbenzylpiperidine]
inhibition potency compared with compound 5λ, in words (α-glucosidase from yeast): slightly improve the inhibition potency | IC50 (α-glucosidase from yeast; [1]): 3.3 µM

CC(=O)CC1C(O)C(O)C(O)CN1Cc1ccc(O)cc1 [Compound 5λ, (1R, 2S, 3R, 4R)-1-Acetylmethyl-2,3,4-trihydroxyl-N-4-hydroxylbenzylpiperidine]
IC50 (α-glucosidase from yeast): 7.4 µM | inhibition of α-glucosidase, in words (α-glucosidase from yeast): improved the enzyme inhibition

CC(=O)CC1C(O)C(O)C(O)CN1Cc1ccc(F)cc1 [Compound 5x, (1R, 2S, 3R, 4R)-1-Acetylmethyl-2,3,4-trihydroxyl-N-4-fluorobenzylpiperidine]
inhibition of α-glucosidase, in words (α-glucosidase from yeast): doesn’t show any significant improvement

CC(=O)C[C@@H]1[C@H](O)[C@H](O)[C@H](O)CN1Cc1ccc(O)cc1Cl [Compound 6d, (1R, 2S, 3R, 4R)-1-Acetylmethyl-2,3,4-trihydroxyl-N-2-chloro-4-hydroxylbenzylpiperidine]
inhibition compared with positive control Acarbose, in words (α-glucosidase from yeast): equivalent to positive control Acarbose | IC50 (α-glucosidase from yeast; [1]): 2.4 µM

CC(=O)CC1C(O)C(O)C(O)CN1Cc1ccc([N+](=O)[O-])cc1 [Compound 5n, (1R, 2S, 3R, 4R)-1-Acetylmethyl-2,3,4-trihydroxyl-N-4-nitrobenzylpiperidine]
inhibition of α-glucosidase, in words (α-glucosidase from yeast): The same result was obtained

CC(=O)CC1C(O)C(O)C(O)CN1Cc1ccc(Br)cc1 [Compound 5u, (1R, 2S, 3R, 4R)-1-Acetylmethyl-2,3,4-trihydroxyl-N-4-bromobenzylpiperidine]
inhibition of α-glucosidase, in words (α-glucosidase from yeast): doesn’t show any significant improvement
